Data published in patent publication US9006454B2, “Dihydroorotate dehydrogenase inhibitors” (Merck Serono S.A., priority 2009, dated 2015).
pEC50, pIC50: −log10 of the molar value.

Tests used:
Jurkat cells = experiment: Measurement of cell proliferation (Jurkat cell), XTT assay; format: cell-based; settings: for inhibition at 1 µM: compound at 1 uM, read-out: % inh Jurkat_cells @ 1 uM (%); for pEC50: XTT cell viability
Experimental: See also Roehm, N et al [1991] An improved colorimetric assay for cell proliferation and viability utilizing the tetrazolium salt XTT. J. Immunol. Methods 142:257-265.
Culture Jurkat cells in T-25 flasks at a density of 0.2×10^6/ml 2-3 days before the day of experiment set up.
Centrifuge Jurkat T-cell suspension at 1200 rpm for 10 minutes and resuspend cells again in fresh RPMI medium with 10% FBS.
Count the cells and dilute suspension to a density of 2×10^6 cells/ml. Seed 50 μL of this suspension in each well of a 96 well plate (100,000 cells per well). Keep the edges of the plate empty to avoid evaporation.
Serially dilute DMSO stocks of compounds to get different concentrations for an EC50 curve. 50 μL of compound diluted in media (2× concentration required in well) is added to each well. DMSO concentration should be kept constant at 0.25-0.5% for all wells.
Typically, for all compounds with IC50<1 μM, compound concentration can start at 10 μM followed by half log dilutions for a total of 8-10 concentrations. Each concentration has to be tested in triplicate.
Include controls such as cells without compound (with same DMSO concentration as compound wells), and media control
Incubate the 96 well plate in a CO2 incubator at 37° C. for 72 hrs before determining cell viability using XTT assay
XTT assay: to each well, add 50 μL of 1 mg/ml XTT solution with 20 μl of PMS/mL. Read the plates after 2 hours at 465 nm using the spectrophotometer. XTT reading for media without cells is used as background reading.
Calculate % cell viability assuming that the cells without compound are 100% viable.
Plot % cell viability as a function of concentration and determine EC50 by using software such as Graph Pad Prism to fit the curve.

DHODH = DHODH (Homo sapiens (Human), UniProt Q02127); experiment: DHODH activity assay (coupled enzyme assay, DCIP reduction, absorbance at 610 nm); format: biochemical; settings: for inhibition at 10 µM / inh @ 10 uM hDHODH (%): compound at 10 uM; for inhibition at 10 µM: read-out: inh @ 10 uM hDHODH (%)
DHODH, sequence (Q02127 whole entry): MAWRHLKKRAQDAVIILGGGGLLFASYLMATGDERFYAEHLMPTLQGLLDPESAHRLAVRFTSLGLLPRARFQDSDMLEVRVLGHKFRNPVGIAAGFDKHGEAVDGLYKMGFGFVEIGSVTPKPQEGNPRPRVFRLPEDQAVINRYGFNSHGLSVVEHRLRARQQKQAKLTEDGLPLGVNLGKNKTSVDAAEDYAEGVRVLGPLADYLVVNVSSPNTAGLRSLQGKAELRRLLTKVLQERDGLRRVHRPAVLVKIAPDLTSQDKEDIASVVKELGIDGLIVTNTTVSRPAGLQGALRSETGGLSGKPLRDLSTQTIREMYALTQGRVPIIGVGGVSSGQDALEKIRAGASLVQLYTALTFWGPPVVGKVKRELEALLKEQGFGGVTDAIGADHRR
Experimental: The DHODH activity assay is a coupled enzyme assay in which oxidation of DHO and subsequent reduction of ubiquinone are stoichiometrically equivalent to the reduction of DCIP ([…]). The reduction of DCIP is accompanied by a loss of absorbance at 610 nm.
Buffer Preparation: 50 mM tris HCl, 150 mM KCl, and pH 8.0, 0.8% triton.
5 μL of Dimethyl sulfoxide or a compound of formula I in DMSO solution was added to the wells of a 96 well plate. Compounds of formula I were measured at 10 μM.
Protein along with buffer was added, so that the total volume including the DMSO was 87 μL. Compound and protein were incubated for half an hour at room temperature after mixing. 5 μL of 20 mM solution of L-Dihydroorotic acid, 5 μL of 2 mM solution of Decylubiquinone and 3 μL of 2 mM solution of 2,6-Dichloroindophenol sodium salt hydrate were added to the above solution (total assay volume 100 μL). The mixture was stirred for 2 min and absorbance was recorded at every 10 min at 610 nanometers.
Percent Inhibition is Calculated as Follows
Positive control contains DMSO, buffer, enzyme and substrates
No Enzyme reaction contains DMSO, buffer and substrates
IC50 determination: • A 2 mM DMSO stock of the compound of formula I to be examined was prepared. ⅓rd dilutions were made as follows:
5 μL of each stock of compound of formula I (solution indicated in column 4 of table) was used for each 100 μL assay. Therefore, 5 μL of the 2 mM stock provided 100 μL of 100 μM solution of compound of formula I, when made up with buffer, protein and substrate. See also: Ulrich et al. (2001) Eur. J. Biochem. 268, 1861-1868.

SMILES | inhibition at 10 µM (DHODH) [%] | pIC50 (DHODH) | other results
O=C(O)c1cc(F)cc2nc(-c3ccc(-c4ccccc4)cc3F)[nH]c12 [Example 29, 6-Fluoro-2-(3-fluoro-biphenyl-4-yl)-3H-benzoimidazole-4-carboxylic acid] | 93.4 |  | inhibition at 1 µM (Jurkat cells; Homo sapiens, Jurkat): 71.6%
O=C(O)c1cccc2[nH]c(-c3ccc(-c4ccccc4)cc3)nc12 [I1] | 93.9 | 6.10 | pEC50 (Jurkat cells; Homo sapiens, Jurkat, 72 h): 6.19
O=C(O)c1cccc2[nH]c(-c3ccc(OCc4ccccc4)cc3)nc12 [I2] | 66.1 | 5.31 | 
COc1cccc(-c2ccc(-c3nc4c(C(=O)O)cccc4[nH]3)c(F)c2)c1 [I3] |  | 6.21 | pEC50 (Jurkat cells; 72 hrs): 6.12; inh @ 10 uM hDHODH (%) (DHODH): 92.6%
COc1cccc(-c2ccc(-c3nc4c(C(=O)O)cccc4[nH]3)c(F)c2)c1 [I4] |  |  | inh @ 10 uM hDHODH (%) (DHODH): 2.1%
COc1cccc(-c2ccc(-c3nc4c(C(=O)O)cccc4[nH]3)c(F)c2)c1 [I5] |  | 6.43 | pEC50 (Jurkat cells; 72 hrs): 6.45; inh @ 10 uM hDHODH (%) (DHODH): 94.3%
O=C(O)c1cc(Br)cc2[nH]c(-c3ccc(-c4ccccc4)cc3)nc12 [I6] | 96.7 | 6.24 | pEC50 (Jurkat cells; Homo sapiens, Jurkat, 72 h): 6.41
Cn1c(-c2ccc(-c3ccccc3)cc2)nc2c(C(=O)O)cccc21 [I7] | 30.2 |  | 
Cn1c(-c2ccc(-c3ccccc3)cc2)nc2cccc(C(=O)O)c21 [I8] | 90.5 | 5.80 | 
O=C(O)c1cccc2[nH]c(-c3cccc(Oc4ccccc4)c3)nc12 [I9] | 64 | 5.14 | inhibition at 1 µM (Jurkat cells; Homo sapiens, Jurkat): 20%
O=C(O)c1cccc2[nH]c(-c3ccc(Oc4ccccc4)cc3)nc12 [I10] | 80.3 | 5.54 | inhibition at 1 µM (Jurkat cells; Homo sapiens, Jurkat): 35.1%
COc1cccc(-c2ccc(-c3nc4c(C(=O)O)cccc4[nH]3)cc2)c1 [I11] | 13.7 |  | inhibition at 1 µM (Jurkat cells; Homo sapiens, Jurkat): 9.4%
Cc1ccc(-c2ccc(-c3nc4c(C(=O)O)cccc4[nH]3)cc2)cc1 [I12] | 9 |  | 
O=C(O)c1cccc2[nH]c(-c3ccc(-c4ccc(C(F)(F)F)cc4)cc3)nc12 [I13] | 10.6 |  | 
Cc1cc(C(=O)O)c2nc(-c3ccc(-c4ccccc4)cc3)[nH]c2c1 [I14] | 102 | 6.52 | pEC50 (Jurkat cells; Homo sapiens, Jurkat, 72 h): 6.58; inhibition at 1 µM (Jurkat cells; Homo sapiens, Jurkat): 76.9%
O=C(O)c1cccc2[nH]c(-c3ccc(-c4ccccc4F)cc3)nc12 [I15] | 96.4 | 6.31 | inhibition at 1 µM (Jurkat cells; Homo sapiens, Jurkat): 64.4%
O=C(O)c1cccc2[nH]c(-c3ccc(-c4ccc(OC(F)(F)F)cc4)cc3)nc12 [I16] | 39.9 |  | inhibition at 1 µM (Jurkat cells; Homo sapiens, Jurkat): 18%
O=C(O)c1cccc2[nH]c(-c3ccc(-c4cccc(F)c4)cc3)nc12 [I17] | 65.2 | 5.42 | inhibition at 1 µM (Jurkat cells; Homo sapiens, Jurkat): 23.5%
Cc1cc(C(=O)O)c2[nH]c(-c3c[nH]c4ccccc34)nc2c1 [I42] | 7.1 |  | 
FC(F)(F)c1cccc2[nH]c(-c3ccc(-c4ccccc4)cc3)nc12 [I43] | 5.6 |  | 
O=C(O)c1cccc2nc(-c3ccc(N4CCOCC4)cc3)[nH]c12 [I62] | 8.4 |  | 
Cc1nc(-c2ccc(-c3nc4cccc(C(=O)O)c4[nH]3)cc2)oc1C [I66] | 8.4 |  | 
COC(=O)c1cccc2nc(-c3ccc(-c4ccccc4)cc3)[nH]c12 [I79, 2-Biphenyl-4-yl-1H-benzoimidazole-4-carboxylic acid methyl ester] | 5.3 |  | 
Cc1cc(C(=O)O)c2nc(-c3ccc(N4CCCCCC4=O)cc3)[nH]c2c1 [I80, 6-Methyl-2-[4-(2-oxo-azepan-1-yl)-phenyl]-1H-benzoimidazole-4-carboxylic acid] | 9.4 |  | 
Cc1cc(C(=O)O)c2nc(C#Cc3ccccc3)[nH]c2c1 [I84, 6-Methyl-2-phenylethynyl-1H-benzoimidazole-4-carboxylic acid] | 59.5 |  | 
Cc1cc(C(=O)O)c2nc(-c3c(F)c(F)c(-c4ccccc4)c(F)c3F)n(C)c2c1 [I113] | 95 | 6.94 | 
Cc1cc(C(=O)O)c2nc(-c3ccc(-c4cnccn4)cc3)[nH]c2c1 [I147] | 44.3 | 5.07 | 
